# Measurements taken from ChEMBL document CHEMBL4138123, “Design, synthesis and biological evaluation of novel pyrazolochalcones as potential modulators of PI3K/Akt/mTOR pathway and inducers of apoptosis in breast cancer cells” (Eur J Med Chem, 2017).
# Assays:
# Type in all cases: functional
# SNB-75 [1] = experiment: Cytotoxicity against human SNB75 cells assessed as cell growth at 1 uM after 48 hrs by sulforhodamine B assay relative to control; settings: SNB-75, 48 h, read-out: Activity
# OVCAR-8 = experiment: Cytotoxicity against human OVCAR8 cells assessed as growth inhibition after 48 hrs by sulforhodamine B assay; settings: OVCAR-8, 48 h
# LOX IMVI [2] = experiment: Cytotoxicity against human LOXIMVI cells assessed as cell growth at 10 uM after 48 hrs by sulforhodamine B assay relative to control; settings: read-out: Activity
# HOP-92 [3] = experiment: Cytotoxicity against human HOP92 cells assessed as cell growth at 0.1 uM after 48 hrs by sulforhodamine B assay relative to control; settings: HOP-92, 48 h, read-out: Activity
# SK-MEL-2 [4] = experiment: Cytotoxicity against human SK-MEL-2 cells assessed as cell growth at 10 uM after 48 hrs by sulforhodamine B assay relative to control; settings: SK-MEL-2, 48 h, read-out: Activity
# LOX IMVI [5] = experiment: Cytotoxicity against human LOXIMVI cells assessed as cell growth at 1 uM after 48 hrs by sulforhodamine B assay relative to control; settings: read-out: Activity
# SF-295 [6] = experiment: Cytotoxicity against human SF295 cells assessed as cell growth at 10 uM after 48 hrs by sulforhodamine B assay relative to control; settings: SF-295, 48 h, read-out: Activity
# HOP-92 [7] = experiment: Cytotoxicity against human HOP92 cells assessed as growth inhibition after 48 hrs by sulforhodamine B assay; settings: HOP-92, 48 h; for CC50: read-out: LC50 (the source's name)
# SNB-75 [8] = experiment: Cytotoxicity against human SNB75 cells assessed as cell growth at 10 uM after 48 hrs by sulforhodamine B assay relative to control; settings: SNB-75, 48 h, read-out: Activity
# LOX IMVI [9] = experiment: Cytotoxicity against human LOXIMVI cells assessed as cell growth at 100 uM after 48 hrs by sulforhodamine B assay relative to control; settings: read-out: Activity
# SK-MEL-2 [10] = experiment: Cytotoxicity against human SK-MEL-2 cells assessed as cell growth at 100 uM after 48 hrs by sulforhodamine B assay relative to control; settings: SK-MEL-2, 48 h, read-out: Activity
# NCI-H322M = experiment: Cytotoxicity against human NCI-H322M cells assessed as cell growth at 10 uM after 48 hrs by sulforhodamine B assay relative to control; settings: read-out: Activity
# SK-MEL-2 [11] = experiment: Cytotoxicity against human SK-MEL-2 cells assessed as cell growth at 1 uM after 48 hrs by sulforhodamine B assay relative to control; settings: SK-MEL-2, 48 h, read-out: Activity
# SF-295 [12] = experiment: Cytotoxicity against human SF295 cells assessed as cell growth at 100 uM after 48 hrs by sulforhodamine B assay relative to control; settings: SF-295, 48 h, read-out: Activity
# SF-295 [13] = experiment: Cytotoxicity against human SF295 cells assessed as cell growth at 0.1 uM after 48 hrs by sulforhodamine B assay relative to control; settings: SF-295, 48 h, read-out: Activity
# LOX IMVI [14] = experiment: Cytotoxicity against human LOXIMVI cells assessed as cell growth at 0.01 uM after 48 hrs by sulforhodamine B assay relative to control; settings: read-out: Activity
# SK-MEL-2 [15] = experiment: Cytotoxicity against human SK-MEL-2 cells assessed as cell growth at 0.01 uM after 48 hrs by sulforhodamine B assay relative to control; settings: SK-MEL-2, 48 h, read-out: Activity
# SF-295 [16] = experiment: Cytotoxicity against human SF295 cells assessed as growth inhibition after 48 hrs by sulforhodamine B assay; settings: SF-295, 48 h
# SNB-75 [17] = experiment: Cytotoxicity against human SNB75 cells assessed as growth inhibition after 48 hrs by sulforhodamine B assay; settings: SNB-75, 48 h
# SNB-75 [18] = experiment: Cytotoxicity against human SNB75 cells assessed as cell growth at 100 uM after 48 hrs by sulforhodamine B assay relative to control; settings: SNB-75, 48 h, read-out: Activity
# SF-295 [19] = experiment: Cytotoxicity against human SF295 cells assessed as cell growth at 1 uM after 48 hrs by sulforhodamine B assay relative to control; settings: SF-295, 48 h, read-out: Activity
# LOX IMVI [20] = experiment: Cytotoxicity against human LOXIMVI cells assessed as cell growth at 0.1 uM after 48 hrs by sulforhodamine B assay relative to control; settings: read-out: Activity
# SNB-75 [21] = experiment: Cytotoxicity against human SNB75 cells assessed as cell growth at 0.1 uM after 48 hrs by sulforhodamine B assay relative to control; settings: SNB-75, 48 h, read-out: Activity
# HOP-92 [22] = experiment: Cytotoxicity against human HOP92 cells assessed as cell growth at 0.01 uM after 48 hrs by sulforhodamine B assay relative to control; settings: HOP-92, 48 h, read-out: Activity
# HOP-92 [23] = experiment: Cytotoxicity against human HOP92 cells assessed as cell growth at 1 uM after 48 hrs by sulforhodamine B assay relative to control; settings: HOP-92, 48 h, read-out: Activity
# HOP-92 [24] = experiment: Cytotoxicity against human HOP92 cells assessed as cell growth at 100 uM after 48 hrs by sulforhodamine B assay relative to control; settings: HOP-92, 48 h, read-out: Activity
# HOP-92 [25] = experiment: Cytotoxicity against human HOP92 cells assessed as cell growth at 10 uM after 48 hrs by sulforhodamine B assay relative to control; settings: HOP-92, 48 h, read-out: Activity
# SF-295 [26] = experiment: Cytotoxicity against human SF295 cells assessed as cell growth at 0.01 uM after 48 hrs by sulforhodamine B assay relative to control; settings: SF-295, 48 h, read-out: Activity
# SNB-75 [27] = experiment: Cytotoxicity against human SNB75 cells assessed as cell growth at 0.01 uM after 48 hrs by sulforhodamine B assay relative to control; settings: SNB-75, 48 h, read-out: Activity
# SK-MEL-2 [28] = experiment: Cytotoxicity against human SK-MEL-2 cells assessed as cell growth at 0.1 uM after 48 hrs by sulforhodamine B assay relative to control; settings: SK-MEL-2, 48 h, read-out: Activity
# CAKI-1 [29] = experiment: Cytotoxicity against human Caki1 cells assessed as cell growth at 1 uM after 48 hrs by sulforhodamine B assay relative to control; settings: CAKI-1, 48 h, read-out: Activity
# CAKI-1 [30] = experiment: Cytotoxicity against human Caki1 cells assessed as cell growth at 10 uM after 48 hrs by sulforhodamine B assay relative to control; settings: CAKI-1, 48 h, read-out: Activity
# CAKI-1 [31] = experiment: Cytotoxicity against human Caki1 cells assessed as cell growth at 100 uM after 48 hrs by sulforhodamine B assay relative to control; settings: CAKI-1, 48 h, read-out: Activity
# CAKI-1 [32] = experiment: Cytotoxicity against human Caki1 cells assessed as growth inhibition after 48 hrs by sulforhodamine B assay; settings: CAKI-1, 48 h
# CAKI-1 [33] = experiment: Cytotoxicity against human Caki1 cells assessed as cell growth at 0.01 uM after 48 hrs by sulforhodamine B assay relative to control; settings: CAKI-1, 48 h, read-out: Activity
# CAKI-1 [34] = experiment: Cytotoxicity against human Caki1 cells assessed as cell growth at 0.1 uM after 48 hrs by sulforhodamine B assay relative to control; settings: CAKI-1, 48 h, read-out: Activity
Structure (SMILES),GI50 (OVCAR-8) [µM],TGI (OVCAR-8) [µM],growth at 10 µM (LOX IMVI [2]) [%],growth at 10 µM (SK-MEL-2 [4]) [%],growth at 1 µM (LOX IMVI [5]) [%],growth at 10 µM (SF-295 [6]) [%],growth at 100 µM (LOX IMVI [9]) [%],growth at 100 µM (SK-MEL-2 [10]) [%],growth at 10 µM (NCI-H322M) [%],growth at 1 µM (SK-MEL-2 [11]) [%],growth at 100 µM (SF-295 [12]) [%],growth at 0.1 µM (SF-295 [13]) [%],growth at 0.01 µM (LOX IMVI [14]) [%],growth at 0.01 µM (SK-MEL-2 [15]) [%],GI50 (SF-295 [16]) [µM],TGI (SF-295 [16]) [µM],growth at 1 µM (SF-295 [19]) [%],growth at 0.1 µM (LOX IMVI [20]) [%],growth at 0.01 µM (SF-295 [26]) [%],growth at 0.1 µM (SK-MEL-2 [28]) [%],also measured
COc1ccc(C(=O)/C=C/c2cc(-c3ccc(OC)c(OC)c3)n[nH]2)cc1OC,2.63,22.5,-89,-44,68,-30,-91,-58,-9,111,-57,90,100,110,1.6,5.05,70,99,85,113,growth at 1 µM (SNB-75 [1]): 58%; growth at 0.1 µM (HOP-92 [3]): 81%; GI50 (HOP-92 [7]): 1.97 µM; TGI (HOP-92 [7]): 8.12 µM; CC50 (HOP-92 [7]): > 100 µM; growth at 10 µM (SNB-75 [8]): -65%; GI50 (SNB-75 [17]): 1.16 µM; TGI (SNB-75 [17]): 2.96 µM; growth at 100 µM (SNB-75 [18]): -82%; growth at 0.1 µM (SNB-75 [21]): 89%; growth at 0.01 µM (HOP-92 [22]): 83%; growth at 1 µM (HOP-92 [23]): 74%; growth at 100 µM (HOP-92 [24]): -15%; growth at 10 µM (HOP-92 [25]): -7%; growth at 0.01 µM (SNB-75 [27]): 82%
COc1cc(-c2cc(/C=C/C(=O)c3ccc(F)c(F)c3)[nH]n2)cc(OC)c1OC,,17.3,8,-28,92,,-86,-64,18,94,,,93,93,,,,94,,98,LC50 (OVCAR-8): > 100 µM; growth at 1 µM (CAKI-1 [29]): 84%; growth at 10 µM (CAKI-1 [30]): 12%; growth at 100 µM (CAKI-1 [31]): 3%; LC50 (CAKI-1 [32]): > 100 µM; TGI (CAKI-1 [32]): > 100 µM; growth at 0.01 µM (CAKI-1 [33]): 95%; growth at 0.1 µM (CAKI-1 [34]): 94%
COc1cc(-c2cc(/C=C/C(=O)c3ccc(N)cc3)[nH]n2)cc(OC)c1OC,2.39,9.76,-78,-15,83,4,-82,-85,-32,104,-95,89,98,106,2.55,10.9,82,99,88,111,LC50 (OVCAR-8): 34.9 µM; growth at 0.1 µM (HOP-92 [3]): 82%; GI50 (HOP-92 [7]): 3.68 µM; TGI (HOP-92 [7]): 27.6 µM; CC50 (HOP-92 [7]): > 100 µM; LC50 (SF-295 [16]): 34.8 µM; growth at 0.01 µM (HOP-92 [22]): 88%; growth at 1 µM (HOP-92 [23]): 79%; growth at 100 µM (HOP-92 [24]): -35%; growth at 10 µM (HOP-92 [25]): 28%
COc1cc2c(cc1OC)C(=O)/C(=C/c1cc(-c3ccc4c(c3)OCO4)n[nH]1)C2,1.57,3.05,,,,-81,,,-90,,-93,95,,,1.64,3.26,86,,95,,growth at 1 µM (SNB-75 [1]): 92%; LC50 (OVCAR-8): 5.93 µM; growth at 1 µM (CAKI-1 [29]): 79%; growth at 10 µM (CAKI-1 [30]): -87%; growth at 10 µM (SNB-75 [8]): -100%; growth at 100 µM (CAKI-1 [31]): -81%; GI50 (CAKI-1 [32]): 1.5 µM; LC50 (CAKI-1 [32]): 6 µM; TGI (CAKI-1 [32]): 3 µM; growth at 0.01 µM (CAKI-1 [33]): 98%; growth at 0.1 µM (CAKI-1 [34]): 97%; LC50 (SF-295 [16]): 6.5 µM; GI50 (SNB-75 [17]): 1.65 µM; LC50 (concentration killing 50% of cells) (SNB-75 [17]): 5.51 µM; TGI (SNB-75 [17]): 3.02 µM; growth at 100 µM (SNB-75 [18]): -96%; growth at 0.1 µM (SNB-75 [21]): 94%; growth at 0.01 µM (SNB-75 [27]): 85%
